Laboratory results published in patent US20220296535A1, “Antibacterial Dosage Regime Using Cannabinoids” (Botanix Pharmaceuticals Limited, priority 2019, published 2022).
≈ marks a conversion by molar mass, not a printed value. Read-outs that look alike come from different tables or passages of the source.

What was measured:
[1] = system: Staphylococcus aureus ATCC 43300 MRSA; assay: Antibacterial time kill assay; assay type: cell-based; conditions: for MIC: Staphylococcus aureus
Description: The time-kill method is based on CLSI guideline M26-A (NCCLS, 1999).
The collaborator supplied sample as dry material. A stock solution was prepared at 10 mg/mL in neat DMSO (11.2 mg in 1.12 mL of DMSO). The highest concentration tested in the assay was 64 μg/mL and 2% DMSO as a final concentration using 1/20 dilution to achieve these concentrations.
Time kill plates: CBD was plate across all the rows and serially diluted in Cation-adjusted Mueller Hinton Broth (CaMHB; BD, Cat. No. 212322) two-fold across the wells of polystyrene (PS) 96-well plates (Corning; Cat. No. 3370), plated in duplicate. Each row were taken as a time point, where row A, 0 h; row B, 1 h; row C, 2 h; row D, 3 h; row E, 4 h; row F, 6 h and row G, 24 h.
Also, control plates were made. CBD and standard antibiotics were serially diluted in Cation-adjusted Mueller Hinton Broth (CaMHB; BD, Cat. No. 212322) two-fold across the wells of polystyrene (PS) 96-well plates (Corning; Cat. No. 3370), plated in duplicate.
The tested bacteria was Staphylococcus aureus ATCC 43300 MRSA (ID GP_020:02).
Charcoal plate PS 96-well plates: 50 μL of sterile activated charcoal suspension (25 mg/ml) were added into row A. 90 μL of 0.9% sterile saline were added to subsequent rows.
(§1) Bacteria (Table 2.6) was cultured in CaMHB at 37° C. overnight, then diluted 40-fold and incubated at 37° C. for a further 2-3 h. The resultant mid-log phase cultures were diluted in CaMHB and added to each well of the control and time kill 96-well plates to give a final cell density of 5×10^5 CFU/mL, and a final compound concentration range of 0.03-64 μg/mL. The plates were covered and incubated at 37° C. for 24 h.
At selected time-points (0, 1, 2, 3, 4, 6 and 24 h), 50 μL of culture per-well was transferred from the time kill plate into the first row of charcoal plate (containing the charcoal suspension) to neutralise the compound. After mixing well, 10 μL were transferred from row A to row B to give a 1:10 dilution, this step was repeated until 1:10'000 (row E). […]
MICs and the time kill results were determined visually at 24 hr incubation. […]

[2] = system: Bacillus megaterium ATCC 13632; assay: Expanded panel MIC micro-broth dilution; assay type: cell-based; conditions: CaMHB
Description: (§2) The collaborator supplied sample as dry material. Angela Kavanagh prepared a stock solution at 10 mg/mL in neat DMSO. The highest concentration tested in the assay was 64 μg/mL for bacteria and 128 μg/mL for fungi. 2% DMSO was the final concentration using 1/20 dilution to achieve these concentrations.
(§3) The compound was serially diluted in Cation-adjusted Mueller Hinton Broth (CaMHB; BD, Cat. No. 212322) two-fold across the wells of polystyrene (PS) 96-well plates (Corning; Cat. No. 3370), plated in duplicate. All plates had flat bottom wells and were covered with low-evaporation lids.
as §1, with “were” for “(Table 2.6) was”, “compound-containing” for “control and time kill”, “20” for “24”
(§4) Inhibition of bacterial growth was determined visually, where the MIC was recorded as the lowest compound concentration with no visible growth.

[3] = system: Bacillus subtilis ATCC 6633; assay: Expanded panel MIC micro-broth dilution; assay type: cell-based; conditions: CaMHB
Description: as §2, §3
as §1, with “were” for “(Table 2.6) was”, “compound-containing” for “control and time kill”, “20” for “24”
as §4

[4] = system: Enterococcus faecalis ATCC 29212; assay: Expanded panel MIC micro-broth dilution; assay type: cell-based; conditions: ATCC29212, CaMHB, read-out: Cannabidiol MIC (Batch 1)
Description: as §2, §3
as §1, with “were” for “(Table 2.6) was”, “compound-containing” for “control and time kill”, “20” for “24”
as §4

[5] = system: Enterococcus faecium ATCC 35667; assay: Expanded panel MIC micro-broth dilution; assay type: cell-based; conditions: CaMHB
Description: as §2, §3
as §1, with “were” for “(Table 2.6) was”, “compound-containing” for “control and time kill”, “20” for “24”
as §4

Kocuria rosea ATCC 31251 = assay: Expanded panel MIC micro-broth dilution; assay type: cell-based; conditions: CaMHB
Description: as §2, §3
as §1, with “were” for “(Table 2.6) was”, “compound-containing” for “control and time kill”, “20” for “24”
as §4

[6] = system: Staphylococcus aureus ATCC 25923; assay: Expanded panel MIC micro-broth dilution; assay type: cell-based; conditions: CaMHB
Description: as §2, §3
as §1, with “were” for “(Table 2.6) was”, “compound-containing” for “control and time kill”, “20” for “24”
as §4

[7] = system: Staphylococcus aureus ATCC 700699, NRS 1; assay: Expanded panel MIC micro-broth dilution; assay type: cell-based; conditions: CaMHB, read-out: Cannabidiol MIC (Batch 1)
Description: as §2, §3
as §1, with “were” for “(Table 2.6) was”, “compound-containing” for “control and time kill”, “20” for “24”
as §4

[8] = system: Staphylococcus capitis ATCC 27840; assay: Expanded panel MIC micro-broth dilution; assay type: cell-based; conditions: CaMHB
Description: as §2, §3
as §1, with “were” for “(Table 2.6) was”, “compound-containing” for “control and time kill”, “20” for “24”
as §4

[9] = system: Staphylococcus epidermidis ATCC 12228; assay: Expanded panel MIC micro-broth dilution; assay type: cell-based; conditions: CaMHB
Description: as §2, §3
as §1, with “were” for “(Table 2.6) was”, “compound-containing” for “control and time kill”, “20” for “24”
as §4

[10] = system: Staphylococcus warneri Clinical isolate; assay: Expanded panel MIC micro-broth dilution; assay type: cell-based; conditions: CaMHB
Description: as §2, §3
as §1, with “were” for “(Table 2.6) was”, “compound-containing” for “control and time kill”, “20” for “24”
as §4

[11] = system: Streptococcus pneumoniae ATCC 33400; assay: Expanded panel MIC micro-broth dilution; assay type: cell-based; conditions: CaMHB
Description: as §2, §3
as §1, with “were” for “(Table 2.6) was”, “compound-containing” for “control and time kill”, “20” for “24”
as §4

[12] = system: Streptococcus pneumoniae ATCC 700677; assay: Expanded panel MIC micro-broth dilution; assay type: cell-based; conditions: ATCC700677, CaMHB, read-out: Cannabidiol MIC (Batch 1)
Description: as §2, §3
as §1, with “were” for “(Table 2.6) was”, “compound-containing” for “control and time kill”, “20” for “24”
as §4

[13] = system: S. aureus MSSA (26 strains); assay: MIC50/MIC90 micro-broth dilution, MSSA strains; conditions: Staphylococcus aureus, MSSA

C=C(C)C1CCC(C)=CC1c1c(O)cc(CCCCC)cc1O (centres unmarked) [Cannabidiol, 2-[3-methyl-6-(1-methylethenyl)-2-cyclohexen-1-yl]-5-pentyl-1,3-benzenediol]
MIC ([1]; CaMHB, 24 hr, read-out: CBD control MIC of the day): 2 µg/mL
MIC ([1]; read-out: previous MIC data): 1 to 2 µg/mL (≈ 3.18 to 6.36 µM)
treatment time after which bactericidal ([1]; concentrations over or equal to the MIC value): 3 h
Cannabidiol MIC (Batch 1) ([2]; Bacillus megaterium ATCC 13632): 2 µg/mL
MIC ([2]; Priestia megaterium, ATCC13632, Bacillus megaterium ATCC 13632, read-out: Cannabidiol MIC (Batch 1)): 1 µg/mL (≈ 3.18 µM)
Cannabidiol MIC (Batch 1) ([3]; Bacillus subtilis ATCC 6633): 2 µg/mL
MIC ([3]; Bacillus subtilis, ATCC6633, Bacillus subtilis ATCC 6633, read-out: Cannabidiol MIC (Batch 1)): 1 µg/mL (≈ 3.18 µM)
MIC [4]: 2 µg/mL (≈ 6.36 µM)
Cannabidiol MIC (Batch 1) ([5]; Enterococcus faecium ATCC 35667): 1 µg/mL
MIC ([5]; Enterococcus faecium, ATCC35667, Enterococcus faecium ATCC 35667, read-out: Cannabidiol MIC (Batch 1)): 0.5 µg/mL (≈ 1.59 µM)
Cannabidiol MIC (Batch 1) (Kocuria rosea ATCC 31251; Kocuria rosea ATCC 31251): 2 µg/mL
MIC (Kocuria rosea ATCC 31251; Kocuria rosea, ATCC31251, Kocuria rosea ATCC 31251, read-out: Cannabidiol MIC (Batch 1)): 1 µg/mL (≈ 3.18 µM)
Cannabidiol MIC (Batch 1) ([6]; Staphylococcus aureus ATCC 25923): 2 µg/mL
MIC ([6]; Staphylococcus aureus, ATCC25923, Staphylococcus aureus ATCC 25923, read-out: Cannabidiol MIC (Batch 1)): 1 µg/mL (≈ 3.18 µM)
MIC [7]: 4 µg/mL (≈ 12.7 µM)
Cannabidiol MIC (Batch 1) ([8]; Staphylococcus capitis ATCC 27840): 2 µg/mL
MIC ([8]; Staphylococcus capitis, ATCC27840, Staphylococcus capitis ATCC 27840, read-out: Cannabidiol MIC (Batch 1)): 1 µg/mL (≈ 3.18 µM)
Cannabidiol MIC (Batch 1) ([9]; Staphylococcus epidermidis ATCC 12228): 2 µg/mL
MIC ([9]; Staphylococcus epidermidis, ATCC12228, Staphylococcus epidermidis ATCC 12228, read-out: Cannabidiol MIC (Batch 1)): 1 µg/mL (≈ 3.18 µM)
Cannabidiol MIC (Batch 1) [10]: 4 µg/mL
MIC ([10]; Staphylococcus warneri, read-out: Cannabidiol MIC (Batch 1)): 2 µg/mL (≈ 6.36 µM)
Cannabidiol MIC (Batch 1) ([11]; Streptococcus pneumoniae ATCC 33400): 2 µg/mL
MIC ([11]; Streptococcus pneumoniae, ATCC33400, Streptococcus pneumoniae ATCC 33400, read-out: Cannabidiol MIC (Batch 1)): 1 µg/mL (≈ 3.18 µM)
MIC [12]: 4 µg/mL (≈ 12.7 µM)
MIC50 [13]: 2 µg/mL (≈ 6.36 µM)
MIC90 [13]: 2 µg/mL (≈ 6.36 µM)
